The subject of experiment [1] is LDL isolated from human plasma. As to the kind of experiment: TBARS assay, AAPH-induced LDL oxidation. The class given is biochemical. The procedure: (§1) To remove the inherent antioxidants, purchased LDL was dialyzed using Fisherbrand cellulose dialysis tubing (type T3 membrane, Thermo Fisher Scientific Inc., Ottawa, ON, Canada) against PBS containing 0.138 M NaCl and 0.0027 M KCl (pH 7.4, at 25° C.) at 4° C. for 24 hours. The buffer was changed every six hours. The dialyzed LDL was immediately used or stored at −80° C. in the dark under nitrogen and used within two to three weeks. Protein content of the dialyzed LDL was measured by the Lowry's method (Lowry et al., J. Biol. Chem., 1951, 193: […]) using bovine serum albumin as the standard.
(§2) Two oxidation induction methods were used: copper sulfate and 2,2′-azobis(2-methylpropionamidine)dihydrochloride (AAPH). For both induction systems, 100 μg/mL of final LDL protein concentration was used. LDL was oxidized at the presence of 10 μM final concentration of Cu^2+and 5 mM final concentration of AAPH separately at 37° C. for 4 h in the dark. […] Oxidation was terminated by adding a 1:1 mixture of 1 mM solution of ethylenediaminetetraacetic acid (EDTA) and 1 mM solution of butylated hydroxytoluene (BHT).
(§3) Two main constituents of TAE and oleanolic acid, which is an isomer of ursolic acid, were also used to investigate the concentration-responsiveness. The same concentrations of Cu^2+ and AAPH were used and the oxidation was terminated by a 1:1 mixture of EDTA and BHT as explained earlier under this section.
(§4) TBARS were measured according to the method of Xu et al., J. Food Sci., 2007, 72: S522-S527 with slight modifications. […] The mixture was incubated at 95° C. for 30 min to develop a pink chromogen. After cooling to room temperature tubes were centrifuged at 1500 g for 15 min and the fluorescence was measured using the FLUOstar OPTIMA plate reader (BMG Labtech Inc. Canada). Excitation and emission wavelengths used were 532 and 590 nm, respectively. TBARS activity was expressed as the percent inhibition (Equation 1) of LDL oxidation with comparison to the positive control, where F is fluorescence:
(§5) Percent inhibition (%)=100(Fpositive control−Fsample)/(Fpositive control) (1)

Experiment [2] concerns LDL isolated from human plasma. As to the kind of experiment: TBARS assay, Cu2+-induced LDL oxidation. The format is biochemical. As for the experimental part:
as §1, §2, §3, §4, §5

Where [3] appears, read: 50 mg L^−1, comparison of constituent compounds and metabolites (Table 4).

Marks after values point to notes of the source that are not given here.

Consider `C[C@H]1[C@H](C)CC[C@]2(C(=O)O)CC[C@]3(C)C(=CC[C@@H]4[C@@]5(C)CC[C@H](O)C(C)(C)[C@@H]5CC[C@]43C)[C@H]12` [Ursolic acid], for which the “Concentration giving a greater protection against AAPH-induced LDL oxidation” value in experiment [1] amounted to 300 mg/L. In experiment [1], the “Inhibiting peroxyl-radical-induced LDL oxidation compared to corosolic and oleanolic acids (statement)” value is recorded as “more effective”. Further, the “Percent inhibition of secondary LDL oxidation products, AAPH induction” value (“Percent inhibition … AAPH induction” for short) was −16.71 ± 1.72^d % in experiment [1] (1 mg L^−1); −16.51 ± 2.32^d % in experiment [1] (10 mg L^−1); 24.25 ± 2.54^c % in experiment [1] (50 mg L^−1); 54.07 ± 2.88^b % in experiment [1] (100 mg L^−1); 49.91 ± 3.26^b % in experiment [1] (200 mg L^−1); 71.45 ± 5.14^a % in experiment [1] (300 mg L^−1). Also, the “Percent inhibition … AAPH induction” value in experiment [1] (400 mg L^−1) is 54.20 ± 2.50^b %; in experiment [1] (500 mg L^−1) it was 46.52 ± 2.39^b %. Moreover, the “Protection for AAPH-induced LDL oxidation” value in experiment [1] (beyond 100 mg L^−1) was “more than 40%”. In experiment [2], the “Protection against Cu2+-induced LDL oxidation (statement)” value is reported as “a certain degree of protection”. Further, the “Percent inhibition of secondary LDL oxidation products, Cu induction” value (from here on “Percent inhibition … Cu induction”) in experiment [2] (1 mg L^−1) was 7.10 ± 1.52^c %; in experiment [2] (10 mg L^−1), −5.10 ± 0.69^d %; in experiment [2] (50 mg L^−1) it was 19.08 ± 2.59^c %; in experiment [2] (100 mg L^−1), 16.73 ± 1.49^c %; in experiment [2] (200 mg L^−1) it was 36.62 ± 5.69^a %; in experiment [2] (300 mg L^−1), 34.93 ± 5.08^ab %. Also, the “Percent inhibition … Cu induction” value in experiment [2] (400 mg L^−1) is reported as 42.45 ± 1.02^a %; in experiment [2] (500 mg L^−1), 39.63 ± 3.85^a %.
As to `O=c1c(O)c(-c2ccc(O)c(OS(=O)(=O)O)c2)oc2cc(O)cc(O)c12` [Quercetin-3′-sulfate], the “Percent inhibition … AAPH induction” value in experiment [1] (setting [3]) is given as 59.63 ± 1.90^e %. Moreover, in experiment [2] (setting [3]), the “Percent inhibition … Cu induction” value is listed as 38.11 ± 1.84^de %.
For the compound `OC[C@H]1O[C@@H](Oc2cc3c(O)cc(O)cc3[o+]c2-c2ccc(O)c(O)c2)[C@H](O)[C@@H](O)[C@H]1O` [Cyanidin-3-O-galactoside], in experiment [1] (setting [3]), the “Percent inhibition … AAPH induction” value is listed as 70.43 ± 1.23^d %. For the same compound, the “Cu2+-induced LDL oxidation (statement)” value in experiment [2] (50 mg L^−1) was “promising results”. The “Percent inhibition … Cu induction” value in experiment [2] (setting [3]) is reported as 104.31 ± 2.25^ab %.
As for `COc1cc(-c2oc3cc(O)cc(O)c3c(=O)c2OC2OC(C(=O)O)C(O)C(O)C2O)ccc1O` (stereo not drawn) [Isorhamnetin-3-glucuronic acid], the “Percent inhibition … AAPH induction” value in experiment [1] (setting [3]) is 51.79 ± 1.27^e %. Besides, the “Percent inhibition … Cu induction” value in experiment [2] (setting [3]) is listed as 20.28 ± 1.49^e %.
For the compound `O=c1c(O[C@@H]2O[C@H](CO)[C@@H](O)[C@H](O)[C@H]2O)c(-c2ccc(O)c(O)c2)oc2cc(O)cc(O)c12` [Quercetin-3-O-glucoside], the “Percent inhibition … AAPH induction” value in experiment [1] (setting [3]) is 138.25 ± 1.97^a %. In experiment [2] (setting [3]), the “Percent inhibition … Cu induction” value is 104.13 ± 0.48^ab %.
Regarding `CC1(C)CC[C@]2(C(=O)O)CC[C@]3(C)C(=CC[C@@H]4[C@@]5(C)CC[C@H](O)C(C)(C)[C@@H]5CC[C@]43C)[C@@H]2C1` [Oleanolic acid], the “Percent inhibition … AAPH induction” value in experiment [1] (1 mg L^−1) was 17.57 ± 8.28^b %; in experiment [1] (10 mg L^−1) it was 31.90 ± 0.95^ab %; in experiment [1] (50 mg L^−1), 37.43 ± 1.98^a %; in experiment [1] (100 mg L^−1), 30.69 ± 3.22^ab %; in experiment [1] (200 mg L^−1), 16.75 ± 4.41^b %; in experiment [1] (300 mg L^−1) it was 26.13 ± 3.09^ab %. Moreover, the “Percent inhibition … AAPH induction” value in experiment [1] (400 mg L^−1) is recorded as 26.20 ± 4.41^ab %; in experiment [1] (500 mg L^−1), 29.17 ± 1.58^ab %. The “Protection for AAPH-induced LDL oxidation” value in experiment [1] (10-100 mg L^−1) is given as “around 30%”. In addition, the “Percent inhibition … Cu induction” value in experiment [2] (1 mg L^−1) was 12.06 ± 2.46^a %; in experiment [2] (10 mg L^−1) it was −3.01 ± 3.42^ab %; in experiment [2] (50 mg L^−1), 12.30 ± 2.73^a %; in experiment [2] (100 mg L^−1) it was −13.37 ± 5.59^b %; in experiment [2] (200 mg L^−1), −47.00 ± 3.05^c %; in experiment [2] (300 mg L^−1), −94.49 ± 4.34^d %. Also, the “Percent inhibition … Cu induction” value in experiment [2] (400 mg L^−1) was −74.73 ± 5.82^d %; in experiment [2] (500 mg L^−1), −78.32 ± 4.31^d %.
With `O=C(/C=C/c1ccc(O)c(O)c1)O[C@@H]1C[C@](O)(C(=O)O)C[C@@H](O)[C@H]1O` [Chlorogenic acid], the “Percent inhibition … AAPH induction” value in experiment [1] (setting [3]) is 100.18 ± 3.29^b %. Further, the “Percent inhibition … Cu induction” value in experiment [2] (setting [3]) was 126.30 ± 1.45^a %.
As to `C[C@H]1[C@H](C)CC[C@]2(C(=O)O)CC[C@]3(C)C(=CC[C@@H]4[C@@]5(C)C[C@@H](O)[C@H](O)C(C)(C)[C@@H]5CC[C@]43C)[C@H]12` [Corosolic acid], the “Percent inhibition … AAPH induction” value in experiment [1] (1 mg L^−1) is on record as 6.09 ± 1.83^d %; in experiment [1] (10 mg L^−1), 5.69 ± 1.46^d %; in experiment [1] (50 mg L^−1) it was 32.80 ± 5.49^bc %; in experiment [1] (100 mg L^−1), 29.84 ± 2.89^c %; in experiment [1] (200 mg L^−1) it was 45.49 ± 3.46^ab %; in experiment [1] (300 mg L^−1), 47.55 ± 1.17^a %. Further, the results for the “Percent inhibition … AAPH induction” value in experiment [1] (400 mg L^−1) and in experiment [1] (500 mg L^−1) were 51.18 ± 1.73^a % and 46.63 ± 3.91^a %, respectively. Besides, in experiment [1] (greater than 200 mg L^−1), the “AAPH-induced LDL oxidation inhibition” value was “more than 40%”. Further, the “Protection against Cu2+-induced LDL oxidation (statement)” value in experiment [2] is reported as “did not show any protection”. The “Percent inhibition … Cu induction” value in experiment [2] (1 mg L^−1) is −17.84 ± 5.15^ab %; in experiment [2] (10 mg L^−1), 3.17 ± 4.20^a %; in experiment [2] (50 mg L^−1), −6.04 ± 3.62^ab %; in experiment [2] (100 mg L^−1), −24.94 ± 2.90^be %; in experiment [2] (200 mg L^−1) it was −54.17 ± 5.21^d %; in experiment [2] (300 mg L^−1) it was −49.93 ± 3.74^d %. The “Percent inhibition … Cu induction” value in experiment [2] (400 mg L^−1) is given as −39.57 ± 3.91^cd %; in experiment [2] (500 mg L^−1), −0.50 ± 5.98^a %.

The values are drawn from patent publication US20130165396A1, “Apple Skin Extracts for Treating Cardiovascular Disease” (NATIONAL RESEARCH COUNCIL OF CANADA, priority 2010, published 2013).
